Data: US11198715B2, “Selective Bfl-1 peptides” (MASSACHUSETTS INSTITUTE OF TECHNOLOGY, priority 2016, dated 2021)

Columns and labels:
Bfl-1 = target: T1, Bfl-1 (Homo sapiens, UniProt Q16548); experiment: Competition fluorescence polarization (anisotropy) binding assay with fluoresceinated Bim; details: for selective binding to Bfl-1 over other Bcl-2 family proteins: Ki from competition assays with fluoresceinated Bim; for affinity for Bfl-1 relative to PUMA / specificity for Bfl-1 relative to PUMA: inhibition constants, 23-residue peptides (FIG. 2I)
T1 sequence (Q16548 1-175): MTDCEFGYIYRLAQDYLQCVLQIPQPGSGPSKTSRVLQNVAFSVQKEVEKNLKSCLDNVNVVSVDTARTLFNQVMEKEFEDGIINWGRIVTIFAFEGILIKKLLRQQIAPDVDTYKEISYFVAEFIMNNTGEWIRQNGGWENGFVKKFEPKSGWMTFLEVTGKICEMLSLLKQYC
Protocol: Fluorescence polarization assays were performed in order to measure the binding abilities of the peptide constructs. Competition fluorescence polarization experiments were performed by titrating 10-0 μM of unlabeled peptide into 50 nM receptor with […] fluorecinated Bim (fluorescein-[…]) in FP buffer (25 mM Tris pH 7.8, 50 mM NaCl, 1 mM EDTA, 0.001% v/v Triton-X, 5% DMSO). C-myc-tagged receptors were used for all Bcl-2 homologs. Plates were mixed at room temperature for 3 h. Experiments were done in triplicate.
Ki values were obtained from the competition assays with fluoresceinated Bim peptide.

[1] = system: BCR-ABL-expressing B-ALL cell lines engineered to depend on Bcl-2, Bcl-xL, Mcl-1 or Bfl-1; experiment: Whole-cell BH3 profiling (JC-1 mitochondrial depolarization, MOMP); assay type: cell-based; parameters: cross reactivity in non-Bfl-1 dependent lines: dose or concentration left out as unconfirmed; details: JC-1 readout; for mitochondrial depolarization in cell lines dependent on Mcl-1, Bcl-2, Bcl-xL or Bfl-1: FS peptides at 100 nM
Protocol: A whole-cell BH3 profiling assay was used to test the specificity of the peptide constructs in several cell lines with known dependencies on anti-apoptotic proteins, including Bcl-2, Mcl-1, Bcl-xL, or Bfl-1. The creation and characterization of the BCR-ABL-expressing B-lineage acute lymphoblastic leukemia suspension cell lines with engineered dependencies on human versions of anti-apoptotic genes is detailed in Koss et al., Oncotarget, 7:11500-11511, 2016. Cells were grown in RPMI (Life Technologies, Carlsbad, Calif.) with 10% fetal bovine serum, 2 mM L-glutamine, 10 mL/L 100× Pen/Strep (Life Technologies #15140122), 25 mM HEPES and 10 mL/L 100×NEAA (Life Technologies, 11140050). The adherent cell lines PC-3 (RRID: CVCL_0035) and SF295 (RRID: CVCL_1690) are from the NCI60 panel (Lorenzi et al., 2009) and were grown in RPMI (Life Technologies) with 10% fetal bovine serum, 2 mM L-glutamine and 10 mL/L 100× Pen/Strep (Life Technologies #15140122). Cell line identities were confirmed by STR profiling. The Lookout Mycoplasma PCR detection kit (Sigma) was used to detect mycoplasma infection. Mycoplasma was only detected in the PC-3 cell line, and internal controls were used to account for this phenotype.
Peptides were titrated by serial dilution in MEB buffer (150 mM Mannitol, 10 mM HEPES-KOH pH 7.5, 50 mM KCl, 0.02 mM EGTA, 0.02 mM EDTA, 0.1% BSA and 5 mM Succinate) containing 20 […], […] and 10 mM 2-mercaptoethanol in 384-well plates. Controls for no depolarization (1% DMSO) and complete depolarization with the mitochondrial oxidative phosphorylation uncoupler FCCP ([…]) were included for data normalization. Cells were suspended at 1.67×10^6 cells/mL in MEB. […] was added to each well containing […] of treatment solution. Fluorescence emission was measured every 5 min for 3 hours at […] with 525 nm excitation on a Tecan Safire2. To produce percent depolarization, the area under the resultant curve was calculated and normalized to the assay controls. Peptide titration curves were fit to sigmoidal dose-response curves using Graphpad PRISM seven to obtain EC50 values.
As depicted in FIG. 9A, in this assay, permeabilized cells were contacted with increasing doses of the BH3 peptides, and mitochondrial outer membrane permeabilization (MOMP) was monitored using a voltage-sensitive dye (JC-1). The apoptotic sensitivity of BCR-ABL-expressing B-lineage acute lymphoblastic leukemia (B-ALL) cell lines engineered to depend on Bcl-2, Bcl-xL, Mcl-1 or Bfl-1 overexpression for survival.

Bcl-xL = experiment: Ki (nM) | Bcl-xL
[2] = system: BCR-ABL-expressing B-ALL cell lines engineered to depend on Bcl-2, Bcl-xL, Mcl-1 or Bfl-1; experiment: iBH3 profiling, cytochrome c release; assay type: cell-based; parameters: cross reactivity in non-Bfl-1 dependent lines: dose or concentration left out as unconfirmed
Protocol: As an additional test for on-pathway activity, cytochrome c release was measured in the same engineered cell lines in response to peptide treatment, using iBH3 profiling (see Ryan et al., Biol. Chem., 397:671-678, 2016). Cells were suspended in MEB buffer (150 mM mannitol, 50 mM KCl, 10 mM HEPES, 5 mM succinic acid, […], 0.1% BSA, final pH 7.4) at 0.5*10^6 cells/mL (adherent lines) or 2*10^6 cells/mL (suspension lines). Cell suspension was added to a 384 non-binding well plate ([…]) containing peptides at 2× final concentration in MEB with […]. Plates were incubated at 25° C. for 1 hour. To terminate exposure, […] in PBS was added to each well, plates were incubated for 10 minutes before addition of […] (1.7 M Tris, 1.25 M glycine, pH 9.1) for 5 min. […] The median fluorescence of the cytochrome c channel of Hoechst positive singlets was recorded by an IntelliCyt iQue Screener Plus. Cytochrome c release was determined by normalizing the median fluorescence intensity (MFI) data to positive control wells (Alamethicin) and negative control wells (DMSO) as follows: Cytochrome release=1−(MFIsample−MFIAlamethicin)/(MFIDMSO−MFIAlamethicin)

specificity for Bfl-1 relative to PUMA (Bfl-1)	specificity for Bfl-1 relative to Bcl-xL, Bcl-2, Bcl-w and Mcl-1 (Bfl-1; ratio of Ki values)	Ki (Bcl-xL) [nM]	Substance	selective binding to Bfl-1 over other Bcl-2 family proteins (Bfl-1)	affinity for Bfl-1 relative to PUMA (Bfl-1)	mitochondrial depolarization in cell lines dependent on Mcl-1, Bcl-2, Bcl-xL or Bfl-1 [1]	cross reactivity in non-Bfl-1 dependent lines [1]	potency of mitochondrial depolarization, comparison [1]	potency in cytochrome c release, comparison [2]	cross reactivity in non-Bfl-1 dependent lines ([2]; cytochrome c release)
significantly increased specificity	at least 150 fold	2720 ± 713	Ac-QWVREIAAGLRLAADNVNAQLER-NH2 [FS1]	bound selectivity to Bfl-1 over other Bcl-2 family proteins	reduced affinity for Bfl-1 relative to PUMA	promoted depolarization only in Bfl-1 dependent cells	–	–	–	–
significantly increased specificity	–	–	QWIREIAAGLRRFADILNAQVER [FS3]	bound selectivity to Bfl-1 over other Bcl-2 family proteins	reduced affinity for Bfl-1 relative to PUMA	promoted depolarization only in Bfl-1 dependent cells	significant cross reactivity	more potently than FS1 or FS2	more potently than FS1 or FS2	significant cross reactivity
significantly increased specificity	–	–	QWVREIAAGLRRAADDVNAQVER [FS2]	bound selectivity to Bfl-1 over other Bcl-2 family proteins	reduced affinity for Bfl-1 relative to PUMA	promoted depolarization only in Bfl-1 dependent cells	–	–	–	–
